This note sets out measurements from patent US10682352B2, “Compound having mutant IDH inhibitory activity, preparation method and use thereof” (SHANGHAI HAIHE PHARMACEUTICAL CO., LTD., priority 2016, dated 2020).

Sequence of IDH1 R132H (O75874 whole entry R132H): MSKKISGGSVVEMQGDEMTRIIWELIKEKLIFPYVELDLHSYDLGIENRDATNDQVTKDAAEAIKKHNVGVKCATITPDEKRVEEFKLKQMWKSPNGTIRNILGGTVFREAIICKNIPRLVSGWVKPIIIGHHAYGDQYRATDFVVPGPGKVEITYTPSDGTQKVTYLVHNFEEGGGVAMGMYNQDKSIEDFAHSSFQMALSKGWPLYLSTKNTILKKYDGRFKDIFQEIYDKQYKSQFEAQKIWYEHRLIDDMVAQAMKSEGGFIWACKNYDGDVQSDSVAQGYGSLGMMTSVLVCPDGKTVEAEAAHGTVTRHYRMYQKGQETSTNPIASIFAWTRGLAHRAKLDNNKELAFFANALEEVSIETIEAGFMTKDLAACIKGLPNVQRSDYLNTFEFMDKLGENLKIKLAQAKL

One test has as its target IDH1 R132H (Homo sapiens (Human), UniProt O75874, R132H). In words: Effect on the enzyme activity of IDH1 at the molecular level (NADPH consumption, diaphorase/resazurin). The test is classed as biochemical. The conditions noted are these: α-KG 1 mM, NADPH 4 μM, 60 min room temperature. On the procedure:
The enzyme used in the experiment was purchased from cayman Co.
The substrates α-KG, NADPH and Diaphorase were purchased from Sigma; Resazurin was purchased from J&K; and the remaining reagents were purchased from Sinopharm Chemical Reagent Co., Ltd.
Compound preparation: Compound 12000 g was centrifuged for 5 min, DMSO was added to prepare 10 mM, which was vortexed, then ultrasonic treatment for 10 minutes, and stored at −40° C. The stock solution was diluted firstly with DMSO to a 10 μM solution when tested and then gradient-diluted for 3 times to a different test concentration.
Test method: The enzyme activity of IDH1 to convert α-KG to 2HG was measured by the consumption of NADPH. After the enzymatic reaction was completed, a catalytic excess of diaphorase and reazurin were added, and the resulting fluorescent signal could reflect the amount of remaining NADPH. […] IC50 values were calculated using GraphPad Prism software.
Background: Resazurin is reduced to fluorescent resorufin, in cell work by metabolically active cells.
`CC(C)[C@H]1CN(C)C(=O)N1c1ccnc(NC2(c3cn(-c4ccc(Cl)cc4)cn3)CC2)n1` [Compound 19, (S)-3-(2-((1-(1-(4-chlorophenyl)-1H-imidazol-4-yl)cyclopropyl)amino)pyrimidin-4-yl)-4-isopropyl-1-methylimidazolidine-2-one] yielded an IC50 of 100 to 1000 nM.

In turn, `C[C@H](Nc1nccc(N2C(=O)N(C)C[C@@H]2[C@@H](C)O)n1)c1cn(-c2ccc(Cl)cc2)cn1` [Compound 81] gave an IC50 of 100 to 1000 nM.

With `CC(C)[C@H]1CN(C)C(=O)N1c1ccnc(NC2(c3cn(-c4cccc(C5CC5)c4)c(Br)n3)CC2)n1` [Compound 67], the IC50 was in the range of 100 to 1000 nM.

`CC(C)[C@H]1CN(C)C(=O)N1c1ccnc(NC2(c3cn(-c4ccccc4Cl)cn3)CC2)n1` [Compound 51, (S)-3-(2-((1-(1-(2-chlorophenyl)-1H-imidazol-4-yl)cyclopropyl)amino)pyrimidin-4-yl)-4-isopropyl-1-methylimidazolidine-2-one] registered an IC50 of 100 to 1000 nM.

In the case of `CC(C)[C@H]1CN(C)C(=O)N1c1ccnc(N[C@@H](C)c2cn(C3CCC(C)(C)CC3)cn2)n1` [Compound 56, (S)-3-(2-(((S)-1-(1-(4,4-dimethylcyclohexyl)-1H-imidazol-4-yl)ethyl)amino)pyrimidin-4-yl)-4-isopropyl-1-methylimidazolidine-2-one], the IC50 lay within 100 to 1000 nM.

In the next test the test system is fibrosarcoma cell line HT1080. The test can be described thus: 2HG inhibition assay on fibrosarcoma cell line HT1080 (LC-MS/MS). The test is classed as cell-based, Human. To be noted: Homo sapiens, HT-1080, 48 h, HT-1080 cells, 48 h incubation; read-out: HT1080 2HG Inhibitory IC50. On the procedure: In this experiment, the inhibitory activity of the compounds of the present invention against the 2HG concentration level of fibrosarcoma cell line HT1080 was measured by the following method.
Different concentrations of compounds were added and incubated for 48 h. HT-1080 cells were trypsinized and collected, and centrifuged at 500 g for 5 min. The supernatant was discarded, and the cells were resuspended in 1 ml of PBS and the number of cells per sample was counting by a counter (Beckman coulter Z2, Beckman) and adjusted to be the same. After centrifuged at 500 g for 5 min, the supernatant was discarded, and the cell pellet was stored in a refrigerator at −80° C. for 2HG detection.
Sample Treatment: an ice acetonitrile solution containing 200 μL of verapamil (internal standard) was added to sample tubes respectively, vortexed for 1 min, and placed in a refrigerator at 4° C. for 20 min to lyse the cells. 100 μL of sample was taken, another 100 μL of lysate was taken in a 96-well plate and dried with a nitrogen blower, and 100 μL of water was added and vortexed to be uniform.
1. Derivatization: 100 μL of o-benzylhydroxylamine hydrochloride derivatization reagent was added and shaken on a shaker for 1 h to complete the derivatization reaction.
2. Solution extraction: 300 μL of ethyl acetate was added separately, shaken for 20 min, centrifuged at 1900 rpm for 5 min, and placed in a refrigerator at −70° C. for 40 min. All the ethyl acetate was taken up to another sample plate, and dried with a nitrogen blower. 150 μL MEOH/H2O (v/v, 1/1) was added for reconstitution.
3. Bioanalysis: All of the above samples were analyzed by LC-MS/MS (Waters ACQUITY H-Class System, Waters/AB6500, Sciex) after centrifuged at 4000 rpm for 10 min.
The inhibition rate of the sample was obtained by the following formula: […]
IC50 values were calculated using GraphPad Prism software.
For `CC(C)[C@H]1CN(C)C(=O)N1c1ccnc(NC2(c3cn(-c4cccc(C5CC5)c4)cn3)CC2)n1` [Compound 34], the IC50 was found to be 16 nM.

For the molecule `[2H]C([2H])([2H])N1C(=O)N(c2ccnc(N[C@@H](C)c3cn(-c4ccc(Cl)cc4)cn3)n2)[C@@H](C(C)C)C1([2H])[2H]` [Compound 89, (S)-3-(2-(((S)-1-(1-(4-chlorophenyl)-1H-imidazol-4-yl)ethyl)amino)pyrimidin-4-yl)-5,5-dideutero-4-isopropyl-1-deuteromethylimidazolidine-2-one], the IC50 was determined as 39 nM.

For the molecule `[2H]C1([2H])NC(=O)N(c2ccnc(N[C@@H](C)c3cn(-c4ccc(C(F)(F)F)cc4)cn3)n2)[C@H]1C(C)C` [Compound 83, (S)-1-(2-(((S)-1-(1-(4-(trifluoromethyl)phenyl)-1H-imidazol-4-yl)ethyl)amino)pyrimidin-4-yl)-4,4-dideutero-5-isopropylimidazolidine-2-one], the IC50 turned out to be 10 nM.

Regarding `CC(C)[C@@H]1N(c2ccnc(N[C@@H](C)c3cn(-c4ccc(C(F)(F)F)cc4)cn3)n2)C(=O)NC1(C)C` [Compound 101], the IC50 came out at 20 nM.

For the molecule `CC(C)[C@H]1CN(C)C(=O)N1c1ccnc(N[C@@H](C)c2cn(-c3ccc(Cl)cc3)cn2)n1` [Compound 17, (S)-3-(2-(((S)-1-(1-(4-chlorophenyl)-1H-imidazol-4-yl)ethyl)amino)pyrimidin-4-yl)-4-isopropyl-1-methylimidazolidine-2-one], the IC50 worked out at 12.9 nM.

Turning to `COc1cc(Cl)cc(-n2cnc(C3(Nc4nccc(N5C(=O)N(C)C[C@@H]5C(C)C)n4)CC3)c2)c1` [Compound 38, (S)-3-(2-((1-(1-(3-chloro-5-methoxyphenyl)-1H-imidazol-4-yl)cyclopropyl)amino)pyrimidin-4-yl)-4-isopropyl-1-methylimidazolidine-2-one], the IC50 was found to be 14 nM.

For the molecule `CC(C)c1cccc(-n2cnc(C3(Nc4nccc(N5C(=O)N(C)C[C@@H]5C(C)C)n4)CC3)c2)c1` [Compound 30, (S)-3-(2-((1-(1-(3-isopropylphenyl)-1H-imidazol-4-yl)cyclopropyl)amino)pyrimidin-4-yl)-4-isopropyl-1-methylimidazolidne-2-one], the IC50 stood at 15 nM.

`CC(C)[C@H]1CN(C)C(=O)N1c1ccnc(NC2(c3cn(-c4cc(Cl)cc(Cl)c4)cn3)CC2)n1` [Compound 26, (S)-3-(2-((1-(1-(3,5-dichlorophenyl)-1H-imidazol-4-yl)cyclopropyl)amino)pyrimidin-4-yl)-4-isopropyl-1-methylimidazolidine-2-one]: the IC50 stood at 27 nM.

Still in this test, the particulars now being: Homo sapiens; HT-1080 cells, 48 h incubation; read-out: HT1080 2HG Inhibitory IC50.
As for `N#Cc1ccnc(N2C(=O)CC[C@H]2C(=O)N(c2cncc(F)c2)[C@H](C(=O)NC2CC(F)(F)C2)c2ccccc2Cl)c1` [AG120, reference compound], the IC50 was found to be 30 nM.

As a reminder, the IC50 is the point on the concentration scale where inhibition reaches its midpoint.
